Patent US20070293422A1, “Beta-Amyloid Inhibitors and Use Thereof” (priority 2003, published 2007)

Experiments:
PC12 cells = type: cell-based
Procedure: Amyloid fibrils are cytotoxic, inducing cell death by apoptosis (Levine et al., 1993). The ability of the compounds of the invention in preventing the amyloid formation can be evaluated by measuring the decrease in the amyloid fibrils cytotoxicity in a cell assay. Toxicity was measured by comparing the effects of samples of Ab1-42 (SEQ ID NO: 11) alone or of mixtures of Ab1-42 combined with the peptides of the invention, on the reduction of the redox active dye, 3-(4,5-dimethylthiazol-2-yl)-2,5-diphenyltetrazolium bromide (MTT) by PC12 cells. […] The cells are incubated for 24 h and thereafter the cellular viability was evaluated using the MTT kit (Kit I (MTT), No. 1 465 007 Roche, Mannheim, Germany). Levels of reduced MTT are determined by measuring the difference in absorbance at 595 and 650 nm using a microplate reader and the extend of cellular viability is then deduced Maximum fibril inhibition is obtained at a peptide concentration of 8 mM for the reference compound of SEQ ID NO: 5 in the fibrillogenesis assay described above. […] Cellular viability is then measured for peptides of the invention by adding the fibrillogenesis assay mixtures containing 1 mM of peptide of the invention (concentration where maximum fibril inhibition is obtained for peptides of the invention) to the PC12 cells after a 20-fold dilution. […]

Aβ1-42 (SEQ ID NO: 11) = biological target: T1, Aβ1-42 (SEQ ID NO: 11) (Homo sapiens, UniProt P05067); assay: Thioflavine T fluorescence assay of Aβ1-42 amyloid fibril formation (fibrillogenesis assay); type: biochemical
T1 construct: purchased BACHEM H-1368.1000
Procedure: The percentage of formed fibrils after 2 days incubation with 110 μM of Aβ1-42 (SEQ ID NO: 11) at 37° C. is represented versus the concentration of the peptides of the invention (in μM). 100% of formed fibrils correspond to the fibrils formed in presence of Aβ1-42 alone. Triangles represent data for pAntp (SEQ ID NO: 4) and squares represent data for pAntp-BSB1 (SEQ ID NO: 6). The percentage of formed fibrils for peptides of the invention is compared to that obtained for a known beta-sheet breaker, BSB1 of SEQ ID NO: 5 (Lozenges). Data are the result of three independent experiments in duplicate.
Amyloid formation can be quantitatively evaluated by the fluorescence emission of thioflavine T (ThT) bound to amyloid fibrils, as reported by Levine et al., 1993 and also Soto et al., 1995.
In this assay, peptides of the invention were solubilized in water at different concentration in small Eppendorff tubes and lyophilized.
Ab1-42 (a synthetic peptide with the same sequence as the one deposited in the amyloid plaques in Alzheimer's brain, SEQ ID NO: 11) was solubilized at the concentration of 1 mg/ml in 2 mM NaOH. Aliquots were lyophilized (storage −80° C.). Several aliquots of Ab1-42 at a concentration of 0.5 mg/ml ([…]) were prepared in 0.1M Tris, pH 7.4 and incubated for 2 or 5 days at 37° C. in the absence or in the presence of different concentrations of the pre-lyophilized peptides of the invention (ranged from […]). Thioflavin T was purchased from Sigma (T-3516). For example, 120 μg of Ab1-42 and mixed to 1 μl of DMSO and 239 μl of 0.1M Tris, pH 7.4. From this solution, 120 μl are incubated 5 days at 37° C. and 120 μl are used to solubilize the peptide of the invention at the desired concentration and incubated 5 days at 37° C.
At the end of the incubation period, 50 mM Glycine, pH 9.2 and 2 μM ThT are added to the incubated mixture described above in a final volume of […] (850 μl of pure water, 200 μl of 50 mM Glycine, pH 9.2 and 40 μl of Thioflavin T (1 mM in pure water) are added to 60 μl of sample.
Fluorescence is measured at excitation 435 nm and emission 485 nm in a Perkin Elmer, model LS50B fluorescence spectrometer. Measurements are carried out after the signal is stable for at least 1-2 min. The initial value of fluorescence represents the fluorescence obtained with Ab1-42 peptide alone (highest concentration of fibrils) representing 100% of formed fibrils.
The percentage of inhibition of Ab1-42 fibril formation induced by compounds of the invention can be calculated using an analytical method such as described in Soto et al., 1998.

T1 sequence (P05067 672-713): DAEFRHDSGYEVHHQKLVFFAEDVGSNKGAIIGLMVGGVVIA

Compound | inhibiting effect on beta-amyloid cellular toxicity compared with BSB1 (PC12 cells; PC12 cells, MTT) | % cell viability (PC12 cells; rat, 24 h, 50 µM) | inhibition (Aβ1-42 (SEQ ID NO: 11); 500 μM peptide, Ab1-42 in 0.1M Tris pH 7.4, 37° C., read-out: % Inhibition of amyloid fibrils) | inhibition of the fibrillogenesis process (FIG. 1) (Aβ1-42 (SEQ ID NO: 11); 2 days incubation with 110 μM Aβ1-42 at 37° C.) | IC50 (Aβ1-42 (SEQ ID NO: 11); ThT fluorescence, Ab1-42 0.5 mg/ml, 37° C., read-out: IC50 (inhibition of Ab1-42 fibril formation)) | % Inhibition of amyloid fibrils (Aβ1-42 (SEQ ID NO: 11); 500 μM peptide, Ab1-42 0.5 mg/ml in 0.1M Tris pH 7.4, 37° C.) | peptide concentration above which the % of fibrils reaches a plateau (Aβ1-42 (SEQ ID NO: 11); FIG. 1, 110 μM Aβ1-42, 37° C.) | peptide concentration at which maximum fibril inhibition is obtained (Aβ1-42 (SEQ ID NO: 11); fibrillogenesis assay)
CC[C@H](C)[C@H](NC(=O)[C@H](CCCCN)NC(=O)[C@@H](NC(=O)[C@H](CCC(N)=O)NC(=O)[C@@H](N)CCCNC(=N)N)[C@@H](C)CC)C(=O)N[C@@H](Cc1c[nH]c2ccccc12)C(=O)N[C@@H](Cc1ccccc1)C(=O)N[C@@H](CCC(N)=O)C(=O)N[C@@H](CC(N)=O)C(=O)N[C@@H](CCCNC(=N)N)C(=O)N[C@@H](CCCNC(=N)N)C(=O)N[C@@H](CCSC)C(=O)N[C@@H](CCCCN)C(=O)N[C@@H](Cc1c[nH]c2ccccc12)C(=O)N[C@@H](CCCCN)C(=O)N[C@@H](CCCCN)C(=O)N[C@@H](CC(C)C)C(=O)N1CCC[C@H]1C(=O)N[C@@H](Cc1ccccc1)C(=O)N[C@@H](Cc1ccccc1)C(=O)N[C@@H](CC(=O)O)C(N)=O [SEQ ID NO: 6] | higher inhibiting effect on the beta-amyloid cellular toxicity than the beta-sheet breaker itself | 166% | 57% | high degree of inhibition | ~98 µM | – | – | –
SEQ ID NO: 5: known beta-sheet breaker BSB1 (WO 01/34631), reference peptide (Ac-LPFFD-NH2) [reference compound] | – | – | – | – | – | 15% | does not reach a plateau limit | 8 mM
